The supplement of paper PMC10307832

Columns and labels:
Experiment in all cases: relative viability (nuclei count vs DMSO), 5 days (fraction); higher = more cells survive
Crenolanib + Trametinib = compound: CC1(COc2ccc3c(c2)ncn3-c2ccc3cccc(N4CCC(N)CC4)c3n2)COC1 [Crenolanib] + CC(=O)Nc1cccc(-n2c(=O)n(C3CC3)c(=O)c3c(Nc4ccc(I)cc4F)n(C)c(=O)c(C)c32)c1 [Trametinib] (partner 0.02 µM)
Method in brief: (§1)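 Five library-drug doses in √10 steps were combined with a fixed anchor-drug dose, or a single drug was given alone, by pin tool to lung cancer cell lines in 1536-well plates the day after seeding. Nuclei were stained and counted after 5 days. Relative viability is the nuclei count in treated wells over that in vehicle wells, taken as the median of duplicate plates.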

Crenolanib + Dasatinib = compound: CC1(COc2ccc3c(c2)ncn3-c2ccc3cccc(N4CCC(N)CC4)c3n2)COC1 [Crenolanib] + Cc1nc(Nc2ncc(C(=O)Nc3c(C)cccc3Cl)s2)cc(N2CCN(CCO)CC2)n1 [Dasatinib] (partner 0.075 µM)
Method in brief: as §1

Tivantinib + Pictilisib = compound: O=C1NC(=O)[C@@H](c2cn3c4c(cccc24)CCC3)[C@@H]1c1c[nH]c2ccccc12 [Tivantinib] + CS(=O)(=O)N1CCN(Cc2cc3nc(-c4cccc5[nH]ncc45)nc(N4CCOCC4)c3s2)CC1 [Pictilisib] (partner 1 µM)
Method in brief: as §1

Tivantinib + OSI-027 = compound: O=C1NC(=O)[C@@H](c2cn3c4c(cccc24)CCC3)[C@@H]1c1c[nH]c2ccccc12 [Tivantinib] + COc1cccc2cc(-c3nc([C@H]4CC[C@H](C(=O)O)CC4)n4ncnc(N)c34)[nH]c12 [OSI-027] (partner 0.5 µM)
Method in brief: as §1

**Q.** UMC-11 was tested. Which relative viability (Crenolanib + Trametinib; first compound 0.01 µM) did it give?
**A.** Its relative viability is 0.74.

**Q.** What about the relative viability (Crenolanib + Trametinib; first compound 0.03162 µM) of the same cell line?
**A.** The relative viability was 0.676.

**Q.** What about the relative viability (Crenolanib + Trametinib; first compound 0.1 µM) of the same cell line?
**A.** The relative viability was 0.683.

**Q.** What about the relative viability (Crenolanib + Trametinib; first compound 0.3162 µM) of the same cell line?
**A.** The relative viability was 0.68.

**Q.** And the relative viability (Crenolanib + Trametinib; first compound 1 µM)?
**A.** Its relative viability is 0.684.

**Q.** And the relative viability (Crenolanib + Dasatinib; first compound 0.01 µM)?
**A.** The relative viability was 0.45.

**Q.** What about the relative viability (Crenolanib + Dasatinib; first compound 0.03162 µM) of the same cell line?
**A.** The relative viability was 0.52.

**Q.** What about the relative viability (Crenolanib + Dasatinib; first compound 0.1 µM) of the same cell line?
**A.** Its relative viability is 0.427.

**Q.** And the relative viability (Crenolanib + Dasatinib; first compound 0.3162 µM)?
**A.** Its relative viability is 0.506.

**Q.** And the relative viability (Crenolanib + Dasatinib; first compound 1 µM)?
**A.** The relative viability was 0.481.

**Q.** What about the relative viability (Tivantinib + Pictilisib; first compound 0.01 µM) of the same cell line?
**A.** The relative viability was 0.733.

**Q.** And the relative viability (Tivantinib + Pictilisib; first compound 0.03162 µM)?
**A.** Its relative viability is 0.423.

**Q.** And the relative viability (Tivantinib + Pictilisib; first compound 0.1 µM)?
**A.** The relative viability was 0.75.

**Q.** What about the relative viability (Tivantinib + Pictilisib; first compound 0.3162 µM) of the same cell line?
**A.** Its relative viability is 0.954.

**Q.** And the relative viability (Tivantinib + OSI-027; first compound 0.01 µM)?
**A.** The relative viability was 0.451.

**Q.** And the relative viability (Tivantinib + OSI-027; first compound 0.03162 µM)?
**A.** Its relative viability is 0.456.

**Q.** What about the relative viability (Tivantinib + OSI-027; first compound 0.1 µM) of the same cell line?
**A.** Its relative viability is 0.465.

**Q.** And the relative viability (Tivantinib + OSI-027; first compound 0.3162 µM)?
**A.** The relative viability was 0.521.
